#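 Exposure lasted 48 hours, with cells grown in 96-well plates and compounds tested at five concentrations. Definition used: TGI = concentration required for complete inhibition of growth.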
# Assays:
# Experiment in all cases: growth of human tumour cells (NCI), 48 h
# MOLT-4 leukemia = system: MOLT-4 leukemia
# NCI-H460 lung = system: NCI-H460 lung
# COLO 205 colon = system: COLO 205 colon
# SK-MEL-5 melanoma = system: SK-MEL-5 melanoma
# MDA-MB-231 breast = system: MDA-MB-231 breast
# 786-0 renal = system: 786-0 renal
# SN12C renal = system: SN12C renal
# ACHN renal = system: ACHN renal
# OVCAR-3 ovarian = system: OVCAR-3 ovarian
# TK-10 renal = system: TK-10 renal
# MDA-N = system: MDA-N
# RXF 393 renal = system: RXF 393 renal
# T-47D breast = system: T-47D breast
# EKVX NSCLC = system: EKVX NSCLC
# SR leukemia = system: SR leukemia
# HOP-92 NSCLC = system: HOP-92 NSCLC
# SF-295 CNS = system: SF-295 CNS
# DU-145 prostate = system: DU-145 prostate
# K-562 leukemia = system: K-562 leukemia
# SK-MEL-2 melanoma = system: SK-MEL-2 melanoma
compound,measurement,setting,value
COc1ccc(/C=C2\C(=O)N(C)C(=O)c3cc(OC)c(OC)cc32)cc1OC,TGI,MOLT-4 leukemia,> 100 µM
same,TGI,NCI-H460 lung,> 100 µM
same,TGI,COLO 205 colon,47.9 µM
same,TGI,SK-MEL-5 melanoma,89.8 µM
same,TGI,MDA-MB-231 breast,> 100 µM
same,TGI,786-0 renal,> 100 µM
same,TGI,SN12C renal,> 100 µM
same,TGI,ACHN renal,> 100 µM
same,TGI,OVCAR-3 ovarian,> 100 µM
same,TGI,TK-10 renal,> 100 µM
same,TGI,MDA-N,75.2 µM
same,TGI,RXF 393 renal,51.6 µM
same,TGI,T-47D breast,> 100 µM
same,TGI,EKVX NSCLC,27.9 µM
same,TGI,SR leukemia,55.5 µM
same,TGI,HOP-92 NSCLC,75.5 µM
same,TGI,SF-295 CNS,78.7 µM
same,TGI,DU-145 prostate,> 100 µM
same,TGI,K-562 leukemia,> 100 µM
same,TGI,SK-MEL-2 melanoma,> 100 µM
O=C1Cc2c([nH]c3c(Cl)cccc23)-c2ccccc2N1,TGI,MOLT-4 leukemia,> 100 µM
same,TGI,NCI-H460 lung,> 100 µM
same,TGI,COLO 205 colon,> 100 µM
same,TGI,SK-MEL-5 melanoma,> 100 µM
same,TGI,MDA-MB-231 breast,> 100 µM
same,TGI,786-0 renal,> 100 µM
same,TGI,SN12C renal,> 100 µM
same,TGI,ACHN renal,> 100 µM
same,TGI,OVCAR-3 ovarian,> 100 µM
same,TGI,TK-10 renal,> 100 µM
same,TGI,MDA-N,> 100 µM
same,TGI,T-47D breast,> 100 µM
same,TGI,SR leukemia,> 100 µM
same,TGI,HOP-92 NSCLC,> 100 µM
same,TGI,SF-295 CNS,> 100 µM
same,TGI,DU-145 prostate,> 100 µM
same,TGI,K-562 leukemia,> 100 µM
O=Cc1c2ccccc2n2ccc3c4ccccc4[nH]c3c12,TGI,MOLT-4 leukemia,> 10 µM
same,TGI,NCI-H460 lung,> 10 µM
same,TGI,COLO 205 colon,> 10 µM
same,TGI,SK-MEL-5 melanoma,> 10 µM
same,TGI,MDA-MB-231 breast,> 10 µM
same,TGI,786-0 renal,> 10 µM
same,TGI,SN12C renal,> 10 µM
same,TGI,ACHN renal,> 10 µM
same,TGI,OVCAR-3 ovarian,> 10 µM
same,TGI,TK-10 renal,> 10 µM
same,TGI,MDA-N,> 10 µM
same,TGI,RXF 393 renal,> 10 µM
same,TGI,T-47D breast,> 10 µM
same,TGI,EKVX NSCLC,> 10 µM
same,TGI,SR leukemia,> 10 µM
same,TGI,HOP-92 NSCLC,> 10 µM
same,TGI,SF-295 CNS,> 10 µM
same,TGI,DU-145 prostate,> 10 µM
same,TGI,K-562 leukemia,> 10 µM
same,TGI,SK-MEL-2 melanoma,> 10 µM
CCCN1CC=C(c2cc(C(=O)OCC)[nH]c2-c2cc(C)no2)C1=O,TGI,MOLT-4 leukemia,> 100 µM
same,TGI,NCI-H460 lung,> 100 µM
same,TGI,COLO 205 colon,> 100 µM
same,TGI,SK-MEL-5 melanoma,> 100 µM
same,TGI,MDA-MB-231 breast,> 100 µM
same,TGI,786-0 renal,> 100 µM
same,TGI,SN12C renal,> 100 µM
same,TGI,OVCAR-3 ovarian,> 100 µM
same,TGI,MDA-N,> 100 µM
same,TGI,RXF 393 renal,> 100 µM
same,TGI,T-47D breast,> 100 µM
same,TGI,EKVX NSCLC,> 100 µM
same,TGI,SR leukemia,> 100 µM
same,TGI,HOP-92 NSCLC,> 100 µM
same,TGI,SF-295 CNS,> 100 µM
same,TGI,DU-145 prostate,> 100 µM
same,TGI,K-562 leukemia,> 100 µM
same,TGI,SK-MEL-2 melanoma,> 100 µM
Cn1ccc(C(=O)N2CCSC2=S)c(OCc2ccccc2)c1=O,TGI,NCI-H460 lung,> 100 µM
same,TGI,COLO 205 colon,> 100 µM
same,TGI,SK-MEL-5 melanoma,> 100 µM
same,TGI,MDA-MB-231 breast,> 100 µM
same,TGI,786-0 renal,> 100 µM
same,TGI,SN12C renal,> 100 µM
same,TGI,ACHN renal,> 100 µM
same,TGI,TK-10 renal,> 100 µM
same,TGI,MDA-N,> 100 µM
same,TGI,T-47D breast,> 100 µM
same,TGI,SR leukemia,93.6 µM
same,TGI,HOP-92 NSCLC,> 100 µM
same,TGI,DU-145 prostate,> 100 µM
same,TGI,K-562 leukemia,> 100 µM
same,TGI,SK-MEL-2 melanoma,> 100 µM
COC(=O)C1CCOC(C)N1C(=O)OC(C)(C)C (stereo not given),TGI,MOLT-4 leukemia,> 100 µM
same,TGI,NCI-H460 lung,> 100 µM
same,TGI,COLO 205 colon,> 100 µM
same,TGI,SK-MEL-5 melanoma,> 100 µM
same,TGI,MDA-MB-231 breast,> 100 µM
same,TGI,786-0 renal,> 100 µM
same,TGI,SN12C renal,> 100 µM
same,TGI,ACHN renal,> 100 µM
same,TGI,OVCAR-3 ovarian,> 100 µM
same,TGI,TK-10 renal,> 100 µM
same,TGI,MDA-N,> 100 µM
same,TGI,RXF 393 renal,> 100 µM
same,TGI,T-47D breast,> 100 µM
same,TGI,EKVX NSCLC,> 100 µM
same,TGI,SR leukemia,> 100 µM
same,TGI,SF-295 CNS,> 100 µM
same,TGI,DU-145 prostate,> 100 µM
same,TGI,K-562 leukemia,> 100 µM
same,TGI,SK-MEL-2 melanoma,> 100 µM
CC(=O)N1CN2C(=O)CCC2c2ccccc21 (stereo not given),TGI,MOLT-4 leukemia,> 100 µM
same,TGI,NCI-H460 lung,> 100 µM
same,TGI,COLO 205 colon,> 100 µM
same,TGI,SK-MEL-5 melanoma,> 100 µM
same,TGI,MDA-MB-231 breast,> 100 µM
same,TGI,786-0 renal,> 100 µM
same,TGI,SN12C renal,> 100 µM
same,TGI,ACHN renal,> 100 µM
same,TGI,OVCAR-3 ovarian,> 100 µM
same,TGI,TK-10 renal,> 100 µM
same,TGI,MDA-N,> 100 µM
same,TGI,RXF 393 renal,> 100 µM
same,TGI,T-47D breast,> 100 µM
same,TGI,EKVX NSCLC,> 100 µM
same,TGI,SR leukemia,97.9 µM
same,TGI,HOP-92 NSCLC,> 100 µM
same,TGI,SF-295 CNS,> 100 µM
same,TGI,DU-145 prostate,> 100 µM
same,TGI,K-562 leukemia,> 100 µM
same,TGI,SK-MEL-2 melanoma,> 100 µM
N#CC1Cc2cc3c(cc21)OCO3 (stereo not given),TGI,MOLT-4 leukemia,> 100 µM
same,TGI,NCI-H460 lung,> 100 µM
same,TGI,COLO 205 colon,> 100 µM
same,TGI,SK-MEL-5 melanoma,> 100 µM
same,TGI,MDA-MB-231 breast,> 100 µM
same,TGI,786-0 renal,> 100 µM
same,TGI,SN12C renal,> 100 µM
same,TGI,ACHN renal,> 100 µM
same,TGI,OVCAR-3 ovarian,> 100 µM
same,TGI,TK-10 renal,> 100 µM
same,TGI,MDA-N,> 100 µM
same,TGI,T-47D breast,> 100 µM
same,TGI,EKVX NSCLC,> 100 µM
same,TGI,SR leukemia,> 100 µM
same,TGI,HOP-92 NSCLC,> 100 µM
same,TGI,SF-295 CNS,> 100 µM
same,TGI,DU-145 prostate,> 100 µM
same,TGI,K-562 leukemia,> 100 µM
same,TGI,SK-MEL-2 melanoma,> 100 µM
S=C1Cc2c(-c3ccc(Cl)cc3)cc(-c3ccccc3)nc2-c2ccccc2N1,TGI,MOLT-4 leukemia,> 100 µM
same,TGI,NCI-H460 lung,36.2 µM
same,TGI,COLO 205 colon,49.5 µM
same,TGI,SK-MEL-5 melanoma,> 100 µM
same,TGI,MDA-MB-231 breast,23.8 µM
same,TGI,786-0 renal,21.8 µM
same,TGI,SN12C renal,31.3 µM
same,TGI,ACHN renal,27.1 µM
same,TGI,OVCAR-3 ovarian,29.8 µM
same,TGI,TK-10 renal,30.2 µM
same,TGI,MDA-N,30.4 µM
same,TGI,RXF 393 renal,21.9 µM
same,TGI,T-47D breast,> 100 µM
same,TGI,EKVX NSCLC,54.9 µM
same,TGI,SR leukemia,> 100 µM
same,TGI,HOP-92 NSCLC,26.7 µM
same,TGI,SF-295 CNS,34.1 µM
same,TGI,DU-145 prostate,> 100 µM
same,TGI,K-562 leukemia,> 100 µM
same,TGI,SK-MEL-2 melanoma,37.6 µM
Cc1ccc(S(=O)(=O)n2c3c(c4ccccc42)CCN2C(=O)C(S(=O)(=O)c4ccccc4)=CCC32)cc1 (stereo not given),TGI,NCI-H460 lung,1.51 µM
same,TGI,COLO 205 colon,0.458 µM
same,TGI,SK-MEL-5 melanoma,0.337 µM
same,TGI,MDA-MB-231 breast,0.409 µM
same,TGI,786-0 renal,0.346 µM
same,TGI,SN12C renal,0.434 µM
same,TGI,ACHN renal,0.393 µM
same,TGI,OVCAR-3 ovarian,0.332 µM
same,TGI,TK-10 renal,0.282 µM
same,TGI,MDA-N,0.378 µM
same,TGI,RXF 393 renal,0.273 µM
same,TGI,T-47D breast,0.375 µM
same,TGI,SR leukemia,0.635 µM
same,TGI,HOP-92 NSCLC,0.315 µM
same,TGI,SF-295 CNS,3.49 µM
same,TGI,DU-145 prostate,0.375 µM
same,TGI,K-562 leukemia,0.673 µM
same,TGI,SK-MEL-2 melanoma,0.475 µM
O=[N+]([O-])c1ccc2[nH]nc(OCc3ccccn3)c2c1,TGI,MOLT-4 leukemia,> 100 µM
same,TGI,NCI-H460 lung,> 100 µM
same,TGI,COLO 205 colon,> 100 µM
same,TGI,SK-MEL-5 melanoma,> 100 µM
same,TGI,MDA-MB-231 breast,> 100 µM
same,TGI,786-0 renal,> 100 µM
same,TGI,SN12C renal,> 100 µM
same,TGI,ACHN renal,> 100 µM
same,TGI,OVCAR-3 ovarian,> 100 µM
same,TGI,TK-10 renal,> 100 µM
same,TGI,MDA-N,> 100 µM
same,TGI,RXF 393 renal,> 100 µM
same,TGI,T-47D breast,> 100 µM
same,TGI,EKVX NSCLC,> 100 µM
same,TGI,SR leukemia,> 100 µM
same,TGI,HOP-92 NSCLC,> 100 µM
same,TGI,SF-295 CNS,> 100 µM
same,TGI,DU-145 prostate,> 100 µM
same,TGI,K-562 leukemia,> 100 µM
same,TGI,SK-MEL-2 melanoma,> 100 µM
C1=Nc2ccc(cc2)N=Cc2ccc(cc2)OCc2cccc(n2)COc2ccc1cc2,TGI,MOLT-4 leukemia,> 100 µM
same,TGI,NCI-H460 lung,> 100 µM
same,TGI,COLO 205 colon,> 100 µM
same,TGI,SK-MEL-5 melanoma,> 100 µM
same,TGI,MDA-MB-231 breast,> 100 µM
same,TGI,786-0 renal,> 100 µM
same,TGI,SN12C renal,> 100 µM
same,TGI,ACHN renal,> 100 µM
same,TGI,OVCAR-3 ovarian,> 100 µM
same,TGI,MDA-N,> 100 µM
same,TGI,RXF 393 renal,> 100 µM
same,TGI,T-47D breast,> 100 µM
same,TGI,EKVX NSCLC,> 100 µM
same,TGI,SR leukemia,> 100 µM
same,TGI,HOP-92 NSCLC,> 100 µM
same,TGI,SF-295 CNS,> 100 µM
same,TGI,DU-145 prostate,> 100 µM
same,TGI,K-562 leukemia,> 100 µM
same,TGI,SK-MEL-2 melanoma,> 100 µM

# Source: PubChem BioAssay (NCI)
